# Data taken from publication PMC4744035, “In Vivo, In Vitro, and In Silico Characterization of Peptoids as Antimicrobial Agents” (PLoS ONE, 2016).
# Square brackets hold non-standard residues; d marks the D form. Peptide text beside a SMILES is read from it. Nspe = C[C@H](NCC(=O)O)c1ccccc1; Nlys = NCCCCNCC(=O)O
# Columns and labels:
# E. coli ATCC 35218 = assay type: cell-based
# Procedure, shortened: (§1)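 MICs determined by 2:1 serial broth microdilution in cation-adjusted Mueller-Hinton broth per CLSI M7-A6, using inoculum at 1 x 10^6 CFU/mL mixed 1:1 with peptoid solution. Three independent replicates, each with two parallel trials.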
# erythrocytes = test: Hemolytic activity (HD10/HD50); assay type: cell-based
# Description: Table 1 Characteristics of antimicrobial peptoids, screened for activity against B. subtilis and E. coli bacterial strains. | column: HD10 / HD50
# NIH 3T3 cells = test: Metabolic activity, MTS assay; assay type: cell-based, mouse
# Protocol: NIH 3T3 mouse fibroblast cells were cultured in complete Dulbecco’s Modified Eagle’s Media. A peptoid solution plate (100 µL per well) was prepared by serial dilution of aqueous peptoid stock solutions in Hank’s balanced salt solution. A day-old cell monolayer was washed thoroughly with Hank’s balanced salt solution and replenished with 100 µL Hank’s balanced salt solution per well. Peptoid solutions were transferred onto the day-old cell monolayers, which contained approximately 5000 cells per well. […] The average of six replicate trials is reported.
# E. faecalis ATCC29212 = test: microbe, parasite or virus in culture; conditions: ATCC29212
# Procedure, shortened: (§2)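 Modified broth microdilution in Mueller Hinton medium, polypropylene plates; agents serially diluted in 0.01% acetic acid with 0.2% BSA. Inoculum 2–7 x 10^5 CFU/mL from overnight culture, incubated overnight at 37°C. MIC taken as lowest concentration with no visible growth.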
# P. maltophilia ATCC13637 = test: microbe, parasite or virus in culture; conditions: ATCC13637
# Procedure, shortened: as §2
# P. aeruginosa 198 (MDR) = test: microbe, parasite or virus in culture; conditions: 198 (MDR)
# Procedure, shortened: as §2
# S. aureus C623 (MRSA) = test: microbe, parasite or virus in culture; conditions: C623
# Procedure, shortened: as §2
# E. faecalis F43559 (VRE) = test: microbe, parasite or virus in culture; conditions: F43559 (VRE)
# Procedure, shortened: as §2
# [1] = system: P. aeruginosa H1027 (MDR); test: microbe, parasite or virus in culture; conditions: H1027 (MDR)
# Procedure, shortened: as §2
# P. aeruginosa 9 (MDR) = test: microbe, parasite or virus in culture; conditions: 9 (MDR)
# Procedure, shortened: as §2
# [2] = system: P. aeruginosa LES400 (MDR); test: microbe, parasite or virus in culture; conditions: LES400 (MDR)
# Procedure, shortened: as §2
# E. coli 64771 (ESBL) = test: microbe, parasite or virus in culture; conditions: 64771 (ESBL)
# Procedure, shortened: as §2
# [3] = system: P. aeruginosa H103 (wild type); test: microbe, parasite or virus in culture; conditions: H103 (wild type)
# Procedure, shortened: as §2
# E. coli 63103 (ESBL) = test: microbe, parasite or virus in culture; conditions: 63103 (ESBL)
# Procedure, shortened: as §2
# [4] = system: E. cloacae 218R Class C β-lactamase; test: microbe, parasite or virus in culture; conditions: 218R Class C β-lactamase
# Procedure, shortened: as §2
# [5] = system: K. pneumonia 63575 (ESBL); test: microbe, parasite or virus in culture
# Procedure, shortened: as §2
# [6] = system: K. pneumonia 61962 (ESBL); test: microbe, parasite or virus in culture
# Procedure, shortened: as §2
# [7] = system: P. aeruginosa H1030 (MDR); test: microbe, parasite or virus in culture; conditions: P. aeruginosa H1030 (MDR)
# Procedure, shortened: as §2
# E. faecalis W61950 (VRE) = test: microbe, parasite or virus in culture; conditions: W61950 (VRE)
# Procedure, shortened: as §2
# P. aeruginosa 213 (MDR) = test: microbe, parasite or virus in culture; conditions: 213 (MDR)
# Procedure, shortened: as §2
# S. aureus ATCC25923 = test: microbe, parasite or virus in culture; conditions: ATCC25923
# Procedure, shortened: as §2
# E. faecium mic80 (VRE) = test: microbe, parasite or virus in culture; conditions: mic80 (VRE)
# Procedure, shortened: as §2
# E. faecium T62764 (VRE) = test: microbe, parasite or virus in culture; conditions: T62764 (VRE)
# Procedure, shortened: as §2
# B. subtilis ATCC 6633 = assay type: cell-based
# Procedure, shortened: as §1
molecule,measurement,setting,value
"C[C@@H](c1ccccc1)N(CC(N)=O)C(=O)CN(Cc1ccccc1)C(=O)CN(CCCCN)C(=O)CN(Cc1ccccc1)C(=O)CN(Cc1ccccc1)C(=O)CN(CCCCN)C(=O)CN(Cc1ccccc1)C(=O)CN(Cc1ccccc1)C(=O)CN(CCCCN)C(=O)CN(Cc1ccccc1)C(=O)CN(Cc1ccccc1)C(=O)CNCCCCN [Peptoid 1ach-Nspe12, H-(NLys-Npm-Npm)3-(NLys-Npm-Nspe)-NH2]",MIC E. coli,E. coli ATCC 35218,6.3 µM
same,HD10 (hemolytic activity),erythrocytes,164
same,HD50 (hemolytic activity),erythrocytes,> 200
same,"ID50 (inhibitory dose, metabolic activity)",NIH 3T3 cells,15 µM
same,MIC,E. faecalis ATCC29212,8 µg/mL
same,MIC,P. maltophilia ATCC13637,1 µg/mL
same,MIC,P. aeruginosa 198 (MDR),8 µg/mL
same,MIC,S. aureus C623 (MRSA),8 µg/mL
same,MIC,E. faecalis F43559 (VRE),16 µg/mL
same,MIC,[1],1 µg/mL
same,MIC,P. aeruginosa 9 (MDR),64 µg/mL
same,MIC,[2],4 µg/mL
same,MIC,E. coli 64771 (ESBL),4 µg/mL
same,MIC,[3],4 µg/mL
same,MIC,E. coli 63103 (ESBL),16 µg/mL
same,MIC,[4],16 µg/mL
same,MIC,[5],32 µg/mL
same,MIC,[6],128 µg/mL
same,MIC,[7],32 µg/mL
same,MIC,E. faecalis W61950 (VRE),16 µg/mL
same,MIC,P. aeruginosa 213 (MDR),4 µg/mL
same,MIC,S. aureus ATCC25923,4 µg/mL
same,MIC,E. faecium mic80 (VRE),4 µg/mL
same,MIC,E. faecium T62764 (VRE),1 µg/mL
"C[C@H](NCC(=O)N(CC(=O)N(CCCCN)CC(=O)N(CC(=O)N(CCCCN)CC(=O)N(CC(=O)N(CCCCN)CC(=O)N(CC(=O)N(CC(=O)N(CC(=O)N(CC(=O)N(CCCCN)CC(N)=O)[C@@H](C)c1ccccc1)[C@@H](C)c1ccccc1)[C@@H](C)c1ccccc1)[C@@H](C)c1ccccc1)[C@@H](C)c1ccccc1)[C@@H](C)c1ccccc1)[C@@H](C)c1ccccc1)c1ccccc1 [Peptoid 1scr, H-(Nspe)2-(NLys-Nspe)3-(Nspe)3-NLys-NH2] (H-[Nspe][Nspe][Nlys][Nspe][Nlys][Nspe][Nlys][Nspe][Nspe][Nspe][Nspe][Nlys]-NH2)",MIC E. coli,E. coli ATCC 35218,6.3 µM
same,HD10 (hemolytic activity),erythrocytes,64
same,HD50 (hemolytic activity),erythrocytes,> 200
same,"ID50 (inhibitory dose, metabolic activity)",NIH 3T3 cells,8.5 µM
same,MIC,E. faecalis ATCC29212,8 µg/mL
same,MIC,P. maltophilia ATCC13637,2 µg/mL
same,MIC,P. aeruginosa 198 (MDR),32 µg/mL
same,MIC,S. aureus C623 (MRSA),8 µg/mL
same,MIC,E. faecalis F43559 (VRE),8 µg/mL
same,MIC,[1],4 µg/mL
same,MIC,P. aeruginosa 9 (MDR),256 µg/mL
same,MIC,[2],16 µg/mL
same,MIC,E. coli 64771 (ESBL),16 µg/mL
same,MIC,[3],16 µg/mL
same,MIC,E. coli 63103 (ESBL),64 µg/mL
same,MIC,[4],32 µg/mL
same,MIC,[5],64 µg/mL
same,MIC,[6],128 µg/mL
same,MIC,[7],64 µg/mL
same,MIC,E. faecalis W61950 (VRE),32 µg/mL
same,MIC,P. aeruginosa 213 (MDR),16 µg/mL
same,MIC,S. aureus ATCC25923,8 µg/mL
same,MIC,E. faecium mic80 (VRE),8 µg/mL
same,MIC,E. faecium T62764 (VRE),2 µg/mL
H-(NLys-Nspe-Nspe)3-NH2 [Peptoid 1_9mer],MIC B. subtilis,B. subtilis ATCC 6633,1.6 µM
same,MIC E. coli,E. coli ATCC 35218,25 µM
